Tested on: autologous cell line LB-831-EBV pulsed with MAGE-A12 peptides, lysis by CTL 501D/19 (HLA-Cw*07 restricted)
Experiment: Chromium release cytotoxicity assay with peptide-pulsed cells
Type: cell-based, human
Conditions: effector to target ratio of 10, chromium release after 4 hours; for sensitization of peptide-pulsed LB-831-EBV cells to lysis by CTL 501D/19 (recognition by CTL): chromium-labeled cells pulsed 30 min with peptide
Protocol: The lytic activity of CTLs was tested in a chromium release assay as described previously (Boon et al., J. Exp. Med. 152:1184-1193, 1980). Briefly, 1,000 chromium-labeled cells in 100 μl were incubated in 96-well microplates with an equal volume of CTL at different effector to target ratios. Chromium release was measured after 4 h of incubation. For the peptide assay, labeled LB831-EBV cells were incubated for 30 min at 37° C. with various concentrations of peptides. CTL were then added and chromium release was measured as described above.
Cells transfected with fragments of 540 bp or more were capable of stimulating CTL 501D/19, whereas those transfected with shorter fragments were not. […] In the amino-acid sequence corresponding to nucleotides 525-540, two overlapping nonapeptides, EVVRIGHLY (codons 168-176 of MAGE-A12; SEQ ID NO:3) and VRIGHLYIL (codons 170-178 of MAGE-A12; SEQ ID NO:4) were found which conformed to the HLA-Cw7 peptide binding motif, i.e. tyrosine or leucine at the C terminus (Rammensee et al., Immunogenetics. 41:178, 1995). Decapeptide […] (SEQ ID NO:5), nonapeptide VRIGHLYIL (SEQ ID NO:4) and octapeptide RIGHLYIL (SEQ ID NO:6) sensitized the autologous lymphoblastoid cell line LB-83]-EBV to lysis by CTL 501D/19 (FIG. 4). Autologous cell line LB-831-EBV was loaded with MAGE-A12 peptides VRIGHLYIL (SEQ ID NO:4), VVRIGHLYIL (SEQ ID NO:5), or RIGHLYIL (SEQ ID NO:6), and contacted with CTL 501D/19. Chromium-labeled cells were pulsed for 30 min with the indicated concentrations of peptides (VRIGHLYIL (SEQ ID NO:4) or […] (SEQ ID NO:6)). CTL 501D/19 was added at an effector to target ratio of 10. Chromium release was measured after 4 hours.

Sequence: EVVRIGHLY (listed as Homo sapiens) [SEQ ID NO:3, nonapeptide, codons 168-176 of MAGE-A12]
- sensitization of peptide-pulsed LB-831-EBV cells to lysis by CTL 501D/19 (recognition by CTL): not recognized

Sequence: RIGHLYIL [SEQ ID NO:6]
- sensitization of peptide-pulsed LB-831-EBV cells to lysis by CTL 501D/19 (recognition by CTL): sensitized

Sequence: VRIGHLYIL [SEQ ID NO:4]
- EC50 (LB-831-EBV cells pulsed 30 min, read-out: peptide concentration giving half-maximal lysis by CTL 501D/19): 100 pM
- sensitization of peptide-pulsed LB-831-EBV cells to lysis by CTL 501D/19 (recognition by CTL): sensitized

Sequence: VVRIGHLYIL [SEQ ID NO:5]
- sensitization of peptide-pulsed LB-831-EBV cells to lysis by CTL 501D/19 (recognition by CTL): sensitized
